Experimental data taken from patent publication US10682319B2, “Necrosis inhibitors” (National Institute of Biological Sciences, Beijing, priority 2014, dated 2020).

What follows are molecules tested against T1, Recombinant full-length RIPK1 protein with N-terminal GST-tag (hRIP1 kinase) (Homo sapiens, UniProt Q13546) (assay: Kinase assay of RIPK1 (ADP-Glo)). Settings: RIPK1 161 nM, ATP 50 uM, MBP 20 uM, 90 min.
T1 construct: Recombinant full-length RIPK1 protein with N-terminal GST-tag; GST (N); purchased SignalChem R07-34G
T1 sequence (Q13546 1-671): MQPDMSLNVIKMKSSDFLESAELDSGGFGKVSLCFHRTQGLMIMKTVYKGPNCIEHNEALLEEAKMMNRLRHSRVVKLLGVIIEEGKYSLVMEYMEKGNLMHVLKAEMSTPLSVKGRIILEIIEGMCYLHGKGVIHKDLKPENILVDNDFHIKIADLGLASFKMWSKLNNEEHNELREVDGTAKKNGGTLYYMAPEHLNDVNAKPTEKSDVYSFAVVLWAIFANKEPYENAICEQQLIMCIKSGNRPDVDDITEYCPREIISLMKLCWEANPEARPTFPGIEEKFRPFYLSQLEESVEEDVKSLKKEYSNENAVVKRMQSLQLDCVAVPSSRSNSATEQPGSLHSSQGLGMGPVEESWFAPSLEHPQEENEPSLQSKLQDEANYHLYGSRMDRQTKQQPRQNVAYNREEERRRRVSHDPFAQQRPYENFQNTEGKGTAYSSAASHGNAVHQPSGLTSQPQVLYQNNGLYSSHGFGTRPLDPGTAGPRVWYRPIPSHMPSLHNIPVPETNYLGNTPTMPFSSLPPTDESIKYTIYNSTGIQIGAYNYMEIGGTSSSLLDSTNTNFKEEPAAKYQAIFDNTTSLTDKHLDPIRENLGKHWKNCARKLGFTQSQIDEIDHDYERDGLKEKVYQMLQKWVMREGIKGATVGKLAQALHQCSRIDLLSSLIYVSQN
Assay type: biochemical
Procedure: Recombinant full-length RIPK1 protein with N-terminal GST-tag (Cat # R07-34G) was purchased from SignalChem. The ADP-Glo™ kinase assay kit (Cat # V9102) was from Promega. MBP (cat # M2295) protein and all the other chemicals were from Sigma. The 384-well assay plates (Cat #3674, white, opaque) were purchased from Corning.
Kinase activity assay and data analysis: The RIPK1 kinase assay was performed in white 384-well plate. The assay buffer contained 25 mM HEPES (pH7.2), 20 mM MgCl2, 12.5 mM MnCl2, 5 mM EGTA, 2 mM EDTA, 12.5 mM β-glycerol phosphate and 2 mM DTT. RIPK1 was first incubated with compounds or DMSO control for 15 min, then ATP/MBP substrate mixture was added to initiate the reaction. The final concentration of RIPK1 was 161 nM, while the final concentration of ATP was 50 uM, and MBP 20 uM. After 90 min reaction at room temperature, the ADP-Glo reagent and detection solution were added following the technical manual of ADP-Glo™ kinase assay kit (Promega). The luminescence was measured on PerkinElmer Enspire. The data was analyzed using Graphpad Prism (GraphPad Software; www.graphpad.com). The curves were fitted using a non-linear regression model with a sigmoidal dose response.

IC50 [nM]	Structure (SMILES)
33	CCC(C)(C)C(=O)N(C)Cc1cc(F)cc(F)c1F [Compound 75, N,2,2-trimethyl-N-(2,3,5-trifluorobenzyl)butanamide]
29.6	CCC(C)(C)C(=O)N(O)Cc1cc(F)c(F)c(F)c1 [Compound 99, N-hydroxy-2,2-dimethyl-N-(3,4,5-trifluorobenzyl)butanamide]
52	CCC(C)(C)C(=O)N(C)Cc1cccc(F)c1 [Compound 16, N-(3-fluorobenzyl)-N,2,2-trimethylbutanamide]
13.2	CCC(C)(C)C(=O)N(O)Cc1ccccc1 [Compound 92, N-benzyl-N-hydroxy-2,2-dimethylbutanamide]

Same assay, conditions: at 2uM compound

inhibition at 2 µM [%]	Structure (SMILES)
66	CCC(C)(C)C(=O)N(C)Cc1ccccc1Cl [Compound 14, N-(2-chlorobenzyl)-N,2,2-trimethylbutanamide]

The molecules below were run on HT-29 cells (assay: Necrosis assay (TNF-α/Smac mimetic/z-VAD induced necrosis, cell viability by ATP level)). Settings: HT-29, TNF-α + Smac mimetic + z-VAD, 24 hrs, ATP level; values given as ranges in nM; read-out: EC50 (inhibition of necrosis in HT-29 cells).
Assay type: cell-based
Outline: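 Necrosis induced by 20 ng/ml TNF-α, 100 nM Smac mimetic and […], with compound added concurrently for 24 h. Viability read as ATP luminescence (CellTiter-Glo), normalized to DMSO-treated cells; duplicates.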

Structure (SMILES)	EC50 [nM]
CCC(C)(C)C(=O)N(C)Cc1cc(F)cc(F)c1F [Compound 75, N,2,2-trimethyl-N-(2,3,5-trifluorobenzyl)butanamide]	1 to 1000
CCC(C)(C)C(=O)N(O)Cc1cc(F)c(F)c(F)c1 [Compound 99, N-hydroxy-2,2-dimethyl-N-(3,4,5-trifluorobenzyl)butanamide]	1 to 1000
CCC(C)(C)C(=O)N(C)Cc1cccc(F)c1 [Compound 16, N-(3-fluorobenzyl)-N,2,2-trimethylbutanamide]	1 to 1000
CN(Cc1cc(F)cc(F)c1F)C(=O)C(C)(C)C(C)(F)F [Compound S5, 3,3-difluoro-N,2,2-trimethyl-N-(2,3,5-trifluorobenzyl)butanamide]	1 to 1000
CCC(C)(C)C(=O)N(O)Cc1cc(F)c(F)cc1F [Compound 98, N-hydroxy-2,2-dimethyl-N-(2,4,5-trifluorobenzyl)butanamide]	1 to 1000
CCC(C)(C)C(=O)N(C)Cc1cc(C)c(C)s1 [Compound 128, N-((4,5-dimethylthiophen-2-yl)methyl)-N,2,2-trimethylbutanamide]	1 to 1000
CCC(C)(C)C(=O)N(O)Cc1ccc(F)cc1 [Compound 94, N-(4-fluorobenzyl)-N-hydroxy-2,2-dimethylbutanamide]	1 to 1000
CCC(C)(C)C(=O)N(C)CC1CCCCC1 [Compound 39, N-(cyclohexylmethyl)-N,2,2-trimethylbutanamide]	1 to 1000
CCC(C)(C)C(=O)N(O)Cc1ccccc1 [Compound 92, N-benzyl-N-hydroxy-2,2-dimethylbutanamide]	1 to 1000
CCC(C)(C)C(=O)N(C)Cc1cccc(F)c1F [Compound S8, N-(2,3-difluorobenzyl)-N,2,2-trimethylbutanamide]	1 to 1000
CCC(C)(C)C(=O)N(O)Cc1ccc(F)cc1F [Compound 96, N-(2,4-difluorobenzyl)-N-hydroxy-2,2-dimethylbutanamide]	1 to 1000

Same assay, conditions: Homo sapiens, HT-29, 24 h, HT-29, TNF-α + Smac mimetic + z-VAD, 24 hrs, ATP level; values given as ranges in uM; read-out: EC50 (inhibition of necrosis in HT-29 cells)

Structure (SMILES)	EC50 [nM]
CCC(C)(C)C(=O)N(C)Cc1ccccc1Cl [Compound 14, N-(2-chlorobenzyl)-N,2,2-trimethylbutanamide]	1000 to 10000
CCC(C)(C)C(=O)N(C)Cc1ccncc1F [Compound 36, N-((3-fluoropyridin-4-yl)methyl)-N,2,2-trimethylbutanamide]	1000 to 100000
CCC(C)(C)C(=O)N[C@@H](CC(=O)N1CCCCC1)c1ccccc1 [Compound 105, (S)-2,2-dimethyl-N-(3-oxo-1-phenyl-3-(piperidin-1-yl)propyl)butanamide]	1000 to 100000
CCC(C)(C)C(=O)N(Cc1cccc(F)c1)CC1CC1 [Compound 64, N-(cyclopropylmethyl)-N-(3-fluorobenzyl)-2,2-dimethylbutanamide]	1000 to 100000
CCC(C)(C)C(=O)NCc1ccccc1F [Compound 1, N-(2-fluorobenzyl)-2,2-dimethylbutanamide]	1000 to 10000
CC(F)(F)C(C)(C)C(=O)N(O)Cc1cc(F)cc(F)c1F [Compound S14]	1000 to 100000
CN(Cc1ccccc1F)C(=O)c1ccccc1 [Compound 61, N-(2-fluorobenzyl)-N-methylbenzamide]	1000 to 100000
CCC(C)(C)C(=O)N(C)C(C)c1ccccc1 (centres unmarked) [Compound 53, N,2,2-trimethyl-N-(1-phenylethyl)butanamide]	1000 to 100000
CN(Cc1cc(F)cc(F)c1F)C(=O)C1(c2ccccc2)CCCC1 [Compound 87, N-methyl-1-phenyl-N-(2,3,5-trifluorobenzyl)cyclopentanecarboxamide]	1000 to 100000
CCC(C)(C)C(=O)N(CCC(C)=O)Cc1ccccc1F [Compound 12, N-(2-fluorobenzyl)-2,2-dimethyl-N-(3-oxobutyl)butanamide]	1000 to 10000
CC(C)N(C(=O)N(C)Cc1cc(F)cc(F)c1F)C(C)C [Compound 119, 1,1-diisopropyl-3-methyl-3-(2,3,5-trifluorobenzyl)urea]	1000 to 100000
CCC(C)(C)C(=O)N(C)Cc1cc(F)ccc1Br [Compound 56, N-(2-bromo-5-fluorobenzyl)-N,2,2-trimethylbutanamide]	1000 to 10000
CN(Cc1cc(F)c(F)c(F)c1)C(=O)c1c(Cl)cccc1Cl [Compound 129, 2,6-dichloro-N-methyl-N-(3,4,5-trifluorobenzyl)benzamide]	1000 to 100000
CCC(C)(C)C(=O)NCc1ccc(F)cc1F [Compound 7, N-(2,4-difluorobenzyl)-2,2-dimethylbutanamide]	1000 to 10000
CCC(C)(C)C(=O)NCc1cccc(F)c1 [Compound 5, N-(3-fluorobenzyl)-2,2-dimethylbutanamide]	1000 to 10000
CCC(C)(C)C(=O)N(Cc1cc(F)c(F)c(F)c1)OC [Compound 134]	1000 to 100000
CCC(C)(C)C(=O)N(C)Cc1ccncc1 [Compound 34, N,2,2-trimethyl-N-(pyridin-4-ylmethyl)butanamide]	1000 to 100000

Structure (SMILES)	EC50 [nM]
CN(Cc1ccccc1F)C(=O)C1CC1 [Compound 62, N-(2-fluorobenzyl)-N-methylcyclopropanecarboxamide]	1000 to 100000
CCN(Cc1cc(F)cc(F)c1F)C(=O)N(C)C(C)C [Compound 115, 1-ethyl-3-isopropyl-3-methyl-1-(2,3,5-trifluorobenzyl)urea]	1000 to 100000
CCC(C)(C)C(=O)N(C)C1(c2ccccc2)CC1 [Compound 55, N,2,2-trimethyl-N-(1-phenylcyclopropyl)butanamide]	1000 to 100000
CCC(C)(C)C(=O)N(Cc1ccc(F)c(F)c1)OC [Compound 132]	1000 to 100000
CN(Cc1cc(F)cc(F)c1F)C(=O)C1CCC1 [Compound 83, N-methyl-N-(2,3,5-trifluorobenzyl)cyclobutanecarboxamide]	1000 to 10000
CCC(C)(C)C(=O)N(C)[C@@H](CO)c1ccccc1F [Compound 148]	1000 to 100000
CCC(C)(C)C(=O)N(O)CC1CCCC1 [Compound 139]	1000 to 100000
CCC(C)(C)C(=O)N(O)Cc1cccs1 [Compound 136]	1000 to 100000
CCC(C)(C)C(=O)NC(CO)c1ccccc1 (centres unmarked) [Compound 110, N-(2-hydroxy-1-phenylethyl)-2,2-dimethylbutanamide]	1000 to 100000
CCC(C)(C)C(=O)N[C@@H](CC(=O)Nc1ccccc1)c1ccccc1 [Compound 106, (S)-2,2-dimethyl-N-(3-oxo-1-phenyl-3-(phenylamino)propyl)butanamide]	1000 to 100000
CN(Cc1cc(F)cc(F)c1F)C(=O)C12CC3CC(CC(C3)C1)C2 [Compound 76, N-methyl-N-(2,3,5-trifluorobenzyl)adamantane-1-carboxamide]	1000 to 100000
CCC(C)(C)C(=O)N[C@@H](CC(=O)OC)c1ccccc1 [Compound 100, (S)-methyl 3-(2,2-dimethylbutanamido)-3-phenylpropanoate]	1000 to 100000
CCC(C)(C)C(=O)NC1(c2ccccc2)CC1 [Compound 54, 2,2-dimethyl-N-(1-phenylcyclopropyl)butanamide]	1000 to 100000
CCC(C)(C)C(=O)N(O)Cc1ccc(C)s1 [Compound 137]	1000 to 100000
CCC(C)(C)C(=O)N(C)Cc1ccc(F)cc1 [Compound S7, N-(4-fluorobenzyl)-N,2,2-trimethylbutanamide]	1000 to 10000
CCC(C)(C)C(=O)N[C@@H](CC(=O)NCCc1ccccc1)c1ccccc1 [Compound 108, (S)-2,2-dimethyl-N-(3-oxo-3-(phenethylamino)-1-phenylpropyl)butanamide]	1000 to 100000
CCC(C)(C)C(=O)N(O)CC1CCCO1 (centres unmarked) [Compound 142]	1000 to 100000

Same assay, conditions: Homo sapiens, HT-29, cell necrosis assay; exemplary data table; read-out: Cell viability assay, EC50

Structure (SMILES)	EC50 [nM]
CCC(C)(C)C(=O)N(C)Cc1ccccc1Cl [Compound 14, N-(2-chlorobenzyl)-N,2,2-trimethylbutanamide]	3280
CCC(C)(C)C(=O)N(O)Cc1cc(F)c(F)c(F)c1 [Compound 99, N-hydroxy-2,2-dimethyl-N-(3,4,5-trifluorobenzyl)butanamide]	45.7
CCC(C)(C)C(=O)N(O)Cc1ccccc1 [Compound 92, N-benzyl-N-hydroxy-2,2-dimethylbutanamide]	28.4
